# Experimental data from the supplement of paper PMC10307832.
# Compound: Cc1ccccc1C(C(=O)NC1CCCCC1)N(C(=O)Cn1ccnc1C)c1cccc(F)c1 [IDH-C35] + CS(=O)(=O)CCNCc1ccc(-c2ccc3ncnc(Nc4ccc(OCc5cccc(F)c5)c(Cl)c4)c3c2)o1 [Lapatinib] (partner 2 µM)
# Test: relative viability (nuclei count vs DMSO), 5 days (fraction); higher = more cells survive
# Details: first compound 0.08 µM
# Procedure, shortened: (§1)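 Lung cancer cell lines in 1536-well plates got either a single drug or a fixed anchor-drug dose together with five library-drug doses (not always all listed) in √10 steps, by pin tool, on the day after seeding. Nuclei were counted after 5 days, and relative viability is the treated-to-vehicle ratio of nuclei counts. Values are medians of duplicate plates.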
row,Cell Line,relative viability
1,NCI-H727,0.874
2,NCI-H1650,0.785
3,EBC-1,0.24
4,NCI-H1703,1.06
5,NCI-H1993,0.858
6,SW 1573,1.2
7,NCI-H838,1.21
8,NCI-H520,0.895
9,NCI-H2126,0.77
10,EMC-BAC-2,0.916

# Same assay, conditions: first compound 0.253 µM
row,Cell Line,relative viability
1,NCI-H727,0.779
2,NCI-H1650,0.835
3,EBC-1,0.228
4,NCI-H1703,1.06
5,NCI-H1993,0.763
6,SW 1573,1.26
7,NCI-H838,1.07
8,NCI-H520,0.979
9,NCI-H2126,0.77
10,EMC-BAC-2,0.86

# Same assay, conditions: first compound 0.8 µM
row,Cell Line,relative viability
1,NCI-H727,0.801
2,NCI-H1650,0.692
3,EBC-1,0.24
4,NCI-H1703,0.866
5,NCI-H1993,0.79
6,SW 1573,1.09
7,NCI-H838,0.882
8,NCI-H520,0.765
9,NCI-H2126,0.705
10,EMC-BAC-2,0.868

# Same assay, conditions: first compound 2.53 µM
row,Cell Line,relative viability
1,NCI-H727,0.728
2,NCI-H1650,0.285
3,EBC-1,0.232
4,NCI-H1703,0.831
5,NCI-H1993,0.795
6,SW 1573,1.05
7,NCI-H838,1.02
8,NCI-H520,0.884
9,NCI-H2126,0.777
10,EMC-BAC-2,0.895

# Same assay, conditions: first compound 8 µM
row,Cell Line,relative viability
1,NCI-H727,0.947
2,NCI-H1650,0.664
3,EBC-1,0.236
4,NCI-H1703,1.1
5,NCI-H1993,0.92
6,SW 1573,1.09
7,NCI-H838,1.02
8,NCI-H520,0.914
9,NCI-H2126,0.739
10,EMC-BAC-2,0.955

# Compound: CC1=C(C(=NN1)C)CC2=C(C3=C(S2)N(C(=O)N(C3=O)C)CC(C)C)C(=O)N4C[C@@H](CO4)O + CS(=O)(=O)N1CCN(Cc2cc3nc(-c4cccc5[nH]ncc45)nc(N4CCOCC4)c3s2)CC1 [Pictilisib] (partner 1 µM)
# Test: as above
# Details: first compound 0.0025 µM
# Procedure, shortened: as §1
row,Cell Line,relative viability
1,NCI-H727,0.403
2,NCI-H1650,0.575
3,EBC-1,0.396
4,NCI-H1703,0.223
5,NCI-H1993,0.866
6,SW 1573,0.472
7,NCI-H838,0.506
8,LCLC-103H,0.682
9,NCI-H520,0.32
10,NCI-H2126,0.513
11,EMC-BAC-2,0.512
12,ChaGo-K-1,0.794
13,NCI-H441,0.575

# Same assay, conditions: first compound 0.007906 µM
row,Cell Line,relative viability
1,NCI-H727,0.483
2,NCI-H1650,0.587
3,EBC-1,0.333
4,NCI-H1703,0.224
5,NCI-H1993,0.888
6,SW 1573,0.589
7,NCI-H838,0.507
8,LCLC-103H,0.615
9,NCI-H520,0.259
10,NCI-H2126,0.493
11,EMC-BAC-2,0.573
12,ChaGo-K-1,0.608
13,NCI-H441,0.446

# Same assay, conditions: first compound 0.025 µM
row,Cell Line,relative viability
1,NCI-H727,0.336
2,NCI-H1650,0.714
3,EBC-1,0.447
4,NCI-H1703,0.264
5,NCI-H1993,0.89
6,SW 1573,0.595
7,NCI-H838,0.607
8,LCLC-103H,0.704
9,NCI-H520,0.304
10,NCI-H2126,0.509
11,EMC-BAC-2,0.521
12,NCI-H441,0.431

# Same assay, conditions: first compound 0.07906 µM
row,Cell Line,relative viability
1,NCI-H727,0.385
2,NCI-H1650,0.67
3,EBC-1,0.493
4,NCI-H1703,0.256
5,NCI-H1993,0.728
6,SW 1573,0.419
7,NCI-H838,0.511
8,LCLC-103H,0.517
9,NCI-H520,0.269
10,NCI-H2126,0.478
11,EMC-BAC-2,0.505
12,ChaGo-K-1,1.01
13,NCI-H441,0.616

# Same assay, conditions: first compound 0.25 µM
row,Cell Line,relative viability
1,NCI-H727,0.517
2,NCI-H1650,0.708
3,EBC-1,0.444
4,NCI-H1703,0.242
5,NCI-H1993,0.756
6,SW 1573,0.412
7,NCI-H838,0.552
8,LCLC-103H,0.721
9,NCI-H520,0.288
10,NCI-H2126,0.494
11,EMC-BAC-2,0.594
12,ChaGo-K-1,1.04
13,NCI-H441,0.656

# Compound: CC1=C(C(=NN1)C)CC2=C(C3=C(S2)N(C(=O)N(C3=O)C)CC(C)C)C(=O)N4C[C@@H](CO4)O
# Test: relative viability (nuclei count vs DMSO), 5 days (fraction); higher = more cells survive
# Details: 0.0025 µM
# Procedure, shortened: (§2)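 Vehicle-anchored 1536-well plates of lung cancer cell lines, held overnight at 37 °C, were pinned with five library-drug doses (not always all listed) spaced by √10. No medium change followed over the next 5 days, after which the cells were fixed, permeabilised and Hoechst-stained together and imaged at 4×. Nuclei were counted with MetaXpress, and viability is treated-well nuclei over vehicle-well nuclei, taken as a median across plates. Plates passed with control CV below 25% and at least one doubling.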
row,Cell Line,relative viability
1,NCI-H522,0.933
2,NCI-H1623,1.02
3,NCI-H727,1.07
4,NCI-H1650,0.986
5,EBC-1,1.01
6,NCI-H1703,1.03
7,NCI-H1993,1.05
8,SW 1573,1.02
9,NCI-H838,0.992
10,LCLC-103H,1.1
11,NCI-H520,1.03
12,NCI-H2126,1.05
13,EMC-BAC-2,1.07
14,NCI-H2342,1.06
15,ChaGo-K-1,0.989
16,SW 900,1.06
17,NCI-H1648,1.01
18,NCI-H441,1

# Same assay, conditions: 0.007906 µM
row,Cell Line,relative viability
1,NCI-H522,1.12
2,NCI-H1623,0.899
3,NCI-H727,1
4,NCI-H1650,1.07
5,EBC-1,1.07
6,NCI-H1703,0.895
7,NCI-H1993,0.91
8,SW 1573,1.09
9,NCI-H838,0.979
10,LCLC-103H,1.06
11,NCI-H520,0.914
12,NCI-H2126,1.01
13,EMC-BAC-2,1.11
14,NCI-H2342,0.935
15,ChaGo-K-1,0.98
16,SW 900,1.16
17,NCI-H1648,0.971
18,NCI-H441,1.05

# Same assay, conditions: 0.025 µM
row,Cell Line,relative viability
1,NCI-H522,0.735
2,NCI-H1623,1.01
3,NCI-H727,1
4,NCI-H1650,1.11
5,EBC-1,0.868
6,NCI-H1703,0.917
7,NCI-H1993,0.963
8,SW 1573,0.975
9,NCI-H838,0.876
10,LCLC-103H,1
11,NCI-H520,0.644
12,NCI-H2126,1
13,EMC-BAC-2,0.898
14,NCI-H2342,1.03
15,ChaGo-K-1,0.901
16,SW 900,0.835
17,NCI-H1648,0.992
18,NCI-H441,0.901

# Same assay, conditions: 0.07906 µM
row,Cell Line,relative viability
1,NCI-H522,0.64
2,NCI-H1623,1.01
3,NCI-H727,0.875
4,NCI-H1650,1.14
5,EBC-1,1.08
6,NCI-H1703,0.895
7,NCI-H1993,0.843
8,SW 1573,0.957
9,NCI-H838,0.84
10,LCLC-103H,0.919
11,NCI-H520,0.79
12,NCI-H2126,0.935
13,EMC-BAC-2,0.995
14,NCI-H2342,0.975
15,ChaGo-K-1,0.969
16,SW 900,0.888
17,NCI-H1648,0.624
18,NCI-H441,1.08

# Same assay, conditions: 0.25 µM
row,Cell Line,relative viability
1,NCI-H522,0.653
2,NCI-H1623,0.955
3,NCI-H727,0.964
4,NCI-H1650,1.21
5,EBC-1,1.05
6,NCI-H1703,0.897
7,NCI-H1993,0.884
8,SW 1573,1.05
9,NCI-H838,0.856
10,LCLC-103H,0.973
11,NCI-H520,0.628
12,NCI-H2126,1.06
13,EMC-BAC-2,1.05
14,NCI-H2342,0.886
15,ChaGo-K-1,1.06
16,SW 900,0.97
17,NCI-H1648,0.678
18,NCI-H441,1.13

# Compound: Cc1ccccc1C(C(=O)NC1CCCCC1)N(C(=O)Cn1ccnc1C)c1cccc(F)c1 [IDH-C35]
# Test: as above
# Details: 0.08 µM
# Procedure, shortened: as §2
row,Cell Line,relative viability
1,NCI-H522,1.02
2,NCI-H1623,0.969
3,NCI-H727,0.81
4,NCI-H1650,1.01
5,EBC-1,1.05
6,NCI-H1703,0.96
7,NCI-H1993,0.843
8,SW 1573,1.1
9,NCI-H838,1.07
10,LCLC-103H,0.968
11,NCI-H520,1.01
12,NCI-H2126,1.01
13,EMC-BAC-2,0.962
14,NCI-H2342,1.02
15,ChaGo-K-1,0.994
16,SW 900,0.871
17,NCI-H1648,0.756
18,NCI-H441,1.11

# Same assay, conditions: 0.253 µM
row,Cell Line,relative viability
1,NCI-H522,1.07
2,NCI-H1623,0.975
3,NCI-H727,0.98
4,NCI-H1650,0.986
5,EBC-1,1.01
6,NCI-H1703,1.02
7,NCI-H1993,0.955
8,SW 1573,1.12
9,NCI-H838,0.935
10,LCLC-103H,0.957
11,NCI-H520,1.05
12,NCI-H2126,1.02
13,EMC-BAC-2,0.988
14,NCI-H2342,0.957
15,ChaGo-K-1,0.941
16,SW 900,0.849
17,NCI-H1648,0.758
18,NCI-H441,0.892

# Same assay, conditions: 0.8 µM
row,Cell Line,relative viability
1,NCI-H522,0.931
2,NCI-H1623,0.95
3,NCI-H727,1.01
4,NCI-H1650,0.928
5,EBC-1,0.992
6,NCI-H1703,0.95
7,NCI-H1993,0.891
8,SW 1573,0.951
9,NCI-H838,0.978
10,LCLC-103H,0.933
11,NCI-H520,0.87
12,NCI-H2126,0.965
13,EMC-BAC-2,1
14,NCI-H2342,0.901
15,ChaGo-K-1,0.993
16,SW 900,0.768
17,NCI-H1648,0.953
18,NCI-H441,1

# Same assay, conditions: 2.53 µM
row,Cell Line,relative viability
1,NCI-H522,0.884
2,NCI-H1623,1
3,NCI-H727,0.979
4,NCI-H1650,0.923
5,EBC-1,0.981
6,NCI-H1703,0.901
7,NCI-H1993,1.02
8,SW 1573,0.875
9,NCI-H838,1.01
10,LCLC-103H,1.02
11,NCI-H520,0.91
12,NCI-H2126,0.937
13,EMC-BAC-2,0.987
14,NCI-H2342,0.908
15,ChaGo-K-1,0.966
16,SW 900,0.834
17,NCI-H1648,0.761
18,NCI-H441,0.982

# Same assay, conditions: 8 µM
row,Cell Line,relative viability
1,NCI-H522,0.99
2,NCI-H1623,1.04
3,NCI-H727,1.01
4,NCI-H1650,0.839
5,EBC-1,0.96
6,NCI-H1703,0.955
7,NCI-H1993,0.955
8,SW 1573,0.898
9,NCI-H838,0.981
10,LCLC-103H,0.913
11,NCI-H520,1
12,NCI-H2126,0.92
13,EMC-BAC-2,1.03
14,NCI-H2342,0.891
15,ChaGo-K-1,1.02
16,SW 900,0.897
17,NCI-H1648,0.942
18,NCI-H441,0.909
